Assay results taken from ChEMBL document CHEMBL1201862, “PubChem BioAssay data set” (2004).
Active and inactive are the calls of the source. For most assays here, no stated cut-off is given here; in the data, actives have a measured EC50 and inactives only a lower limit.

Tests used:
[1] = molecular target: T1, Calpain-2 catalytic subunit (Sus scrofa, UniProt P43367); experiment: pig calpain II inhibitor potency, dose response, biochemical, fluorogenic peptide substrate (AID 1420); type: functional
T1 sequence (P43367 whole entry): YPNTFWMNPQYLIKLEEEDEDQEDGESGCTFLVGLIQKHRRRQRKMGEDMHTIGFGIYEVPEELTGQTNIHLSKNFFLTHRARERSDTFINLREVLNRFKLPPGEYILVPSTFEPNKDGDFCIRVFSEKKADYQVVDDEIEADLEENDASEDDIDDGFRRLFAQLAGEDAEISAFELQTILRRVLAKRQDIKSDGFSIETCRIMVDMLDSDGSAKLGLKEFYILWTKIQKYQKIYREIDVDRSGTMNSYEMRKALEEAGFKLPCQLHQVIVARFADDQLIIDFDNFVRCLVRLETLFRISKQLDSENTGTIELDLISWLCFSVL

[2] = molecular target: FAD-linked sulfhydryl oxidase ALR (Homo sapiens, UniProt P55789); experiment: inhibitors of human ALR sulfhydryl oxidase, dose response, biochemical, H2O2 detection, luminescence, cherry-pick (AID 493248)
[3] = molecular target: Genome polyprotein (dengue virus type 2, UniProt P29990); experiment: Dengue-2 NS5 methyltransferase inhibitors, primary screen, biochemical, confirmation dose response (AID 588689); type: functional
[4] = molecular target: T2, Voltage-gated N-type calcium channel alpha-1B subunit/Amyloid beta A4 precursor protein-binding family A member 1 (Homo sapiens, UniProt Q00975+Q02410); type: protein assay
[5] = molecular target: T2, Voltage-gated N-type calcium channel alpha-1B subunit/Amyloid beta A4 precursor protein-binding family A member 1; type: protein assay; remark: listed apart in the source
[6] = test system: BJ; experiment: cells; type: functional, cell-based; settings: Homo sapiens
[7] = test system: BJ; experiment: cytotoxicity toward BJ-TERT fibroblasts, dose response, cell-based, RAS-independent, luminescence (AID 1933); type: functional; settings: Homo sapiens
[8] = test system: BJ; experiment: cytotoxicity toward BJ-TERT-LT-ST fibroblasts, dose response, cell-based, RAS-independent, luminescence (AID 1935); type: functional; settings: Homo sapiens;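 further: BJ fibroblasts immortalized with TERT plus LT and ST oncogenes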
[9] = cytotoxicity toward DRD oncogenic fibroblasts, dose response, cell-based, non-viral oncogenic, luminescence (AID 1934); type: functional; settings: Homo sapiens
[10] = inhibitors of SNCA 5'UTR-driven reporter translation, confirmation, H4 neuroglioma cells, luminescence (AID 1988); type: functional, cell-based
[11] = Luminescence Cell-Based Dose Response HTS to Identify Inhibitors of 5'UTR Stem-Loop Driven Prion Protein mRNA Translation in H4 Neuroglioblastoma Cells. [Related pubchem assays: 1827 (Project Summary), 1813 (Primary HTS)]; type: functional
[12] = inhibitors of firefly luciferase expression or activity, dose response, H4 neuroglioma cells, luminescence (AID 1990); type: functional, cell-based

T2 sequence (Q00975 whole entry): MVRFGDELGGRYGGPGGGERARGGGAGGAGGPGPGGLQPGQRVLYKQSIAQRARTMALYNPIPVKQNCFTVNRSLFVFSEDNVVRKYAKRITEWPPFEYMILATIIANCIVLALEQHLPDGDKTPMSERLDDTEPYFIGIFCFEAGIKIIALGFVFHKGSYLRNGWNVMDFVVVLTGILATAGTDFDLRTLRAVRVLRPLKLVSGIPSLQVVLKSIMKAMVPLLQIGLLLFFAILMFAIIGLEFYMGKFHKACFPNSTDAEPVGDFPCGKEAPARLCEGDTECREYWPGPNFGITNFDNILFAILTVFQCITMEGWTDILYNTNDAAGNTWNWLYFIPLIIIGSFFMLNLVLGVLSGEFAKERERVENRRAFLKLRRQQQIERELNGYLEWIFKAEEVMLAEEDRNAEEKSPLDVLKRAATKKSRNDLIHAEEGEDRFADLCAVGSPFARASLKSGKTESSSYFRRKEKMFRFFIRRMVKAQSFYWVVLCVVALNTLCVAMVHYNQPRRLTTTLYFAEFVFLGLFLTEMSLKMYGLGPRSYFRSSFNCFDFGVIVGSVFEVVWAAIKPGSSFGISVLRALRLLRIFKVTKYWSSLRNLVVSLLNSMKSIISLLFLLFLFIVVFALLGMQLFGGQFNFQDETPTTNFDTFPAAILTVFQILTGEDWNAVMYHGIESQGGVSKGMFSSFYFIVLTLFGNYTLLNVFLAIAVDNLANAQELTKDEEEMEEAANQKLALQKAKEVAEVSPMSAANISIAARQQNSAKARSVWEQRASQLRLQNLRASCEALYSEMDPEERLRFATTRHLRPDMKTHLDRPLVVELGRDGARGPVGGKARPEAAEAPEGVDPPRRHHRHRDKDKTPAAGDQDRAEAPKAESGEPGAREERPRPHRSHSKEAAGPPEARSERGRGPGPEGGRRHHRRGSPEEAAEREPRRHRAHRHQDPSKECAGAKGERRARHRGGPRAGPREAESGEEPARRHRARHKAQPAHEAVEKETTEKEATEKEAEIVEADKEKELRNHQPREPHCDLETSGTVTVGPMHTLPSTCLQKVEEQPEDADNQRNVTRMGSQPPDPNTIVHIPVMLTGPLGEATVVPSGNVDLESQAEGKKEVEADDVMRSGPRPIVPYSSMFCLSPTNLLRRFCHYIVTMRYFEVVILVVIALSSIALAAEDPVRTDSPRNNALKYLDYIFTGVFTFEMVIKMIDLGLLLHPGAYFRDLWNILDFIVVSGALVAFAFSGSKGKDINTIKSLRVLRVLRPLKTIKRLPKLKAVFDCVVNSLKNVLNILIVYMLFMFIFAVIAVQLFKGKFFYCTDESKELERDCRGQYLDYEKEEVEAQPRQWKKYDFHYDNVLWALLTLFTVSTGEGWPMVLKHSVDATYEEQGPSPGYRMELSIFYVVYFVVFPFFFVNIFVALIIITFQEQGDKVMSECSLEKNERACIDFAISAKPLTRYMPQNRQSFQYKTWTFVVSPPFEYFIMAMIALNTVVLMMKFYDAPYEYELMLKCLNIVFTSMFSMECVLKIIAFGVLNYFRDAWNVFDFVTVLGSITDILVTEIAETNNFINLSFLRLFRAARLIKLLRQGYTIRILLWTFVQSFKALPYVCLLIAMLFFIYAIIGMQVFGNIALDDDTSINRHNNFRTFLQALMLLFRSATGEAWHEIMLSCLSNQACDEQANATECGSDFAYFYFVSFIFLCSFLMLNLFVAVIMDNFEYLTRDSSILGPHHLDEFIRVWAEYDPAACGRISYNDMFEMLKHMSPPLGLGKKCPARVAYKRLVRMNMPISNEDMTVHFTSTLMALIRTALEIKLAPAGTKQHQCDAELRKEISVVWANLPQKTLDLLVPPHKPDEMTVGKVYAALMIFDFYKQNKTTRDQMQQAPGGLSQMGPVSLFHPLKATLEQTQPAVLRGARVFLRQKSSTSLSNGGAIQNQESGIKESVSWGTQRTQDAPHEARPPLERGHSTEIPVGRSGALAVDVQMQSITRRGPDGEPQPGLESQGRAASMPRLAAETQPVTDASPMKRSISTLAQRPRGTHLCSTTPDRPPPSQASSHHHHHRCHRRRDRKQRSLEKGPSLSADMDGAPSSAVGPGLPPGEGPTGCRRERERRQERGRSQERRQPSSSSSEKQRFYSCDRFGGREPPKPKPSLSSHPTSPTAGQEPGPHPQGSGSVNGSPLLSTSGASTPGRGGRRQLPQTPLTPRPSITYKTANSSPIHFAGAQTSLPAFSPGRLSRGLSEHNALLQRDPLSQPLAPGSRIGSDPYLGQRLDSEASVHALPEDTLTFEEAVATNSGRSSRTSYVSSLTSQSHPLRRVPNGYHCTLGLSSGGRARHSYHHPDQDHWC
T2 sequence (Q02410 whole entry): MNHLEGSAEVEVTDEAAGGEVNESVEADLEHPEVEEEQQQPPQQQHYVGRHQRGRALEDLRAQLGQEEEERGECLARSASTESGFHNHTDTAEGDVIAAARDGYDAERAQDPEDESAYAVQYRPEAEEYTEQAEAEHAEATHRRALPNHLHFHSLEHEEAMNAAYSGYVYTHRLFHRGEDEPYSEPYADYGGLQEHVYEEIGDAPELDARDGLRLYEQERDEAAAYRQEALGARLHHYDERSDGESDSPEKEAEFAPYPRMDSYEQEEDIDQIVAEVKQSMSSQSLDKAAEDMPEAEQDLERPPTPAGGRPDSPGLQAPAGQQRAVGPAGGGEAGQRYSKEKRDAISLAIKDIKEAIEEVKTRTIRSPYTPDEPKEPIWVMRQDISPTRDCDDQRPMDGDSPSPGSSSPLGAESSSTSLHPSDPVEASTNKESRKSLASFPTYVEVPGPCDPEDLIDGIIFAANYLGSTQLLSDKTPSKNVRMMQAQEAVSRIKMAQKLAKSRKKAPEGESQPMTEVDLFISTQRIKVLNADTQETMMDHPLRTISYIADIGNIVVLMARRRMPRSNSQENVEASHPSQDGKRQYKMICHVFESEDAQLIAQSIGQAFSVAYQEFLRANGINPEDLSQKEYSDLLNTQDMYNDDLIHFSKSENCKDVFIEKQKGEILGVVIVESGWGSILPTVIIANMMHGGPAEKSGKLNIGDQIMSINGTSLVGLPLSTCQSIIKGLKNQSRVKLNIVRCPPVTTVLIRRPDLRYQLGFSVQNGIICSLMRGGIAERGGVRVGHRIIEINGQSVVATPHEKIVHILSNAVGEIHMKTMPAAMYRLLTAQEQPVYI
Genome polyprotein, sequence (P29990 2492-3391 limits assumed): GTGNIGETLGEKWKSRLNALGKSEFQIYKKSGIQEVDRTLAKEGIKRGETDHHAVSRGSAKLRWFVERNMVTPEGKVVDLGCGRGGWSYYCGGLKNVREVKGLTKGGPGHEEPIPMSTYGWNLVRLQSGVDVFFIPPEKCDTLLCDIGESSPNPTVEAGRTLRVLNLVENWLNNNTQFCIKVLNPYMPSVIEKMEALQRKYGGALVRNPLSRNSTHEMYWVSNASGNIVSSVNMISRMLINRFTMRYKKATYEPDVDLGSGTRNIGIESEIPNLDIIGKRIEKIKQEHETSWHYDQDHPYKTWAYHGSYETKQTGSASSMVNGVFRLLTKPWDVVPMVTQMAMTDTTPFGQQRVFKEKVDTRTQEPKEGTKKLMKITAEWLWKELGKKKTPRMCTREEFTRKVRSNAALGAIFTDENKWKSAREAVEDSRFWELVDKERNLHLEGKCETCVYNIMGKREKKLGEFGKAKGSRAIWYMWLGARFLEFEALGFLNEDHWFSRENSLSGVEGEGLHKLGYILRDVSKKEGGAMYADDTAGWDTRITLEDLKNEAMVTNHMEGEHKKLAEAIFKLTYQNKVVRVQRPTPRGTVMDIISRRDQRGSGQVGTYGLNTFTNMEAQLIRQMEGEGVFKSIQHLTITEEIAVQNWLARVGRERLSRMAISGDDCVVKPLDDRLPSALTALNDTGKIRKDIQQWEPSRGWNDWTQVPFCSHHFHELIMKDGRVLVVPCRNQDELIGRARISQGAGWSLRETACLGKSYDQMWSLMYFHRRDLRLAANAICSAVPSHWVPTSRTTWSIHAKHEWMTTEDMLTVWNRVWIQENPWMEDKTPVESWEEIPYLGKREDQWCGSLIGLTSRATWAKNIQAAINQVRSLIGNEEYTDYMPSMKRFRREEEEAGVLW
FAD-linked sulfhydryl oxidase ALR, sequence (P55789 whole entry): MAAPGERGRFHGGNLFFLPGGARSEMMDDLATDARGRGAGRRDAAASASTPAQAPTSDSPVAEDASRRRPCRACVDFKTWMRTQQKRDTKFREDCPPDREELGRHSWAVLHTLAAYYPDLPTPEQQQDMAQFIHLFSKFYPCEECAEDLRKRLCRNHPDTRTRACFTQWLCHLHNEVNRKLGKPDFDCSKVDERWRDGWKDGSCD

NC(=O)c1ccc(-n2nnnc2SCC(=O)Nc2ccccc2-c2ccccc2)cc1
IC50 [1]: 5.14 µM (not active)

COc1ccc(OC)c(C(c2nnnn2C2CCCC2)N2CCN(c3ccccc3F)CC2)c1 (stereo not drawn)
IC50 [1]: 1.31 µM (not active)

Cc1ccc(NC(=O)c2cccc(C(=O)Nc3ccc(C)cc3C(=O)O)c2)c(C(=O)O)c1
AC50 [2]: 2.11 µM (active) | IC50 [3]: 22.3 µM (active)

CNC(=S)N=C(Nc1ccc(C)cc1)c1ccccc1
IC50 [4]: > 50 µM (inactive) | IC50 [5]: 2.38 µM (active)

N#CC1=C(N)Oc2cc(N)ccc2C1c1cc(Br)cs1 (stereo not drawn)
EC50 [6]: 94.1 µM (inconclusive) | EC50 [7]: 11.4 µM (active) | EC50 [8]: 20.6 µM (inconclusive) | EC50 [9]: 15.5 µM (inconclusive)

COCCCNc1nnc(Cc2ccc(Cl)cc2)c(O)n1
EC50 [6]: 24.2 µM (active) | EC50 [7]: 1.47 µM (active) | EC50 [10]: 6.13 µM (active) | EC50 [8]: 0.913 µM (active) | EC50 [11]: 9.52 µM (active) | EC50 [9]: 1.04 µM (active) | EC50 [12]: 9.25 µM (inconclusive)

Cc1nc(C)n(CC(O)COc2ccc(C(=O)c3ccccc3)cc2)n1 (stereo not drawn)
IC50 [1]: 13.4 µM (not active)
